Data on two molecules can be found in article PMC13294191, “Oral peptide drug delivery: design of SEDDS providing a protective effect against intestinal membrane-bound enzymes” (Drug Delivery and Translational Research, 2025).

Where a SMILES comes first, the peptide text is derived from it.

Data set [1] addresses T1, Aminopeptidase N from porcine kidney (Sus scrofa, UniProt P15145).
T1 construct: purchased Merck KGaA (Darmstadt, Germany); host or cells: porcine kidney (tissue-derived enzyme suspension)
T1 sequence (P15145 1-963): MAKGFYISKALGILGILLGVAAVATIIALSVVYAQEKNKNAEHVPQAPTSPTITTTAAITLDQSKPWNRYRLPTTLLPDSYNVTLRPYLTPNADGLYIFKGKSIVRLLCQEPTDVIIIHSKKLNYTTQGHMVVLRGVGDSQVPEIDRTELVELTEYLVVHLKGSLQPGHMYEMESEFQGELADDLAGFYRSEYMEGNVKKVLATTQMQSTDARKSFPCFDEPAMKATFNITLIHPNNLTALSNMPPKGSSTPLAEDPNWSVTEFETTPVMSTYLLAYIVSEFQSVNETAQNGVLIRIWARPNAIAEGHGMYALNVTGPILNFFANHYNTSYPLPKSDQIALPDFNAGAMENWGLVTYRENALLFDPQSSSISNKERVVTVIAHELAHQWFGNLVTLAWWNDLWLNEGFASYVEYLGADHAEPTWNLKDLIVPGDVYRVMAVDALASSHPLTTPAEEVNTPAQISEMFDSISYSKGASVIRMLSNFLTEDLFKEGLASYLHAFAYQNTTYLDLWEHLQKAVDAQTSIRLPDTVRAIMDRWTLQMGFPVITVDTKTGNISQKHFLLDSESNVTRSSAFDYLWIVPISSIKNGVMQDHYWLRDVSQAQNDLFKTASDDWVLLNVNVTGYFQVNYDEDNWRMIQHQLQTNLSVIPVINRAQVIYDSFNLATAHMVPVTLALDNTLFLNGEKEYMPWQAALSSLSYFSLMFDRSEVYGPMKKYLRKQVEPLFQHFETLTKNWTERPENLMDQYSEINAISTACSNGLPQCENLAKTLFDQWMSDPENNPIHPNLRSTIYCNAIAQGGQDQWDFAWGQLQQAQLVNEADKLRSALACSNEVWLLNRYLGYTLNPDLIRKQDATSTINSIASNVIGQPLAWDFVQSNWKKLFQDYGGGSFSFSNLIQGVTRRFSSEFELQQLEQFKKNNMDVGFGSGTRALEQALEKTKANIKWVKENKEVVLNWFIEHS
The data set is described as follows: Inhibitory activity of SEDDS and excipients towards isolated aminopeptidase N. It is filed as biochemical. The settings on record: excipient (caprylic acid 20 µL or citronellol 10 µL) solubilized with 20 µL PEG-35 castor oil in HBS pH 6.5, 500 µL; 500 µL of 41.6 mU/mL enzyme; 5 mM L-Leucine-4-nitroanilide; 1 h, 37 °C, 400 rpm; n ≥ 3.
Protocol: Furthermore, a possible inhibitory effect of SEDDS and excipients on aminopeptidase N activity was investigated using the isolated enzyme, following a method previously described with slight modifications [28]. Surfactant solutions were prepared in 20 mM HBS pH 6.5 in the same concentration as they are present in SEDDS. Either 5% (v/v) SEDDS or surfactant solution were mixed in 500 µL together with further 500 µL of a 41.6 mU/mL enzyme solution in 20 mM HBS pH 6.5. L-Leucine- 4-nitroanilide was added prior to SEDDS and surfactant solution in a final concentration of 5 mM.
A 5 mM substrate solution served as the positive control, representing 100% enzyme activity. The samples were incubated on a thermomixer for 1 h at 37 °C and 400 rpm agitation. To stop the enzymatic reaction, 1 mL of methanol containing 2% (v/v) TFA were added to each sample. After centrifugation at 12,500 rpm, the concentration of 4-nitroaniline in the supernatant was quantified. The inhibitory activity was calculated using the following Eq. (5):5 Inhibitoryactivity[%]=100-Abssample/Abspositivecontrol×100

The conditions of data set [2]: pH 6.5.
Protocol: The rat intestine was carefully cleaned to remove its intestinal contents and then cut into 1.5 cm sections. These sections were fixed in Ussing chambers with a surface area of 0.64 cm^2 and 1 mL of 20 mM HBS pH 6.5 was added to each acceptor chamber, while the donor chambers were filled with 1 mL of 5% (v/v) SEDDS in 20 mM HBS pH 6.5, facing the luminal side of the intestine.
The Ussing chambers were incubated in a water bath at 37 °C, and every 1 h, 100 µL aliquots were withdrawn from the acceptor chambers over a 4 h period. Withdrawn samples were replaced with pre-warmed HBS to maintain sink conditions. The concentration of permeated tuftsin in the collected aliquots was determined via HPLC and the apparent permeability coefficient [30]was subsequently calculated using the following Eq. (6):6 Papp[cms^-1]=Q[μg]/Acm^2cμgmL^-1t[s] where Papp is the apparent permeability coefficient, Q is the total amount of test substance permeated through the mucosa, A is the diffusion area of the Ussing chamber system, c is the initial concentration of tuftsin in the donor compartment and t is the total time of experiment.
Data set [3] deals with T2, membrane-bound aminopeptidase N on rat intestinal mucosa (Rattus norvegicus, UniProt P15684).
T2 sequence (P15684 1-965): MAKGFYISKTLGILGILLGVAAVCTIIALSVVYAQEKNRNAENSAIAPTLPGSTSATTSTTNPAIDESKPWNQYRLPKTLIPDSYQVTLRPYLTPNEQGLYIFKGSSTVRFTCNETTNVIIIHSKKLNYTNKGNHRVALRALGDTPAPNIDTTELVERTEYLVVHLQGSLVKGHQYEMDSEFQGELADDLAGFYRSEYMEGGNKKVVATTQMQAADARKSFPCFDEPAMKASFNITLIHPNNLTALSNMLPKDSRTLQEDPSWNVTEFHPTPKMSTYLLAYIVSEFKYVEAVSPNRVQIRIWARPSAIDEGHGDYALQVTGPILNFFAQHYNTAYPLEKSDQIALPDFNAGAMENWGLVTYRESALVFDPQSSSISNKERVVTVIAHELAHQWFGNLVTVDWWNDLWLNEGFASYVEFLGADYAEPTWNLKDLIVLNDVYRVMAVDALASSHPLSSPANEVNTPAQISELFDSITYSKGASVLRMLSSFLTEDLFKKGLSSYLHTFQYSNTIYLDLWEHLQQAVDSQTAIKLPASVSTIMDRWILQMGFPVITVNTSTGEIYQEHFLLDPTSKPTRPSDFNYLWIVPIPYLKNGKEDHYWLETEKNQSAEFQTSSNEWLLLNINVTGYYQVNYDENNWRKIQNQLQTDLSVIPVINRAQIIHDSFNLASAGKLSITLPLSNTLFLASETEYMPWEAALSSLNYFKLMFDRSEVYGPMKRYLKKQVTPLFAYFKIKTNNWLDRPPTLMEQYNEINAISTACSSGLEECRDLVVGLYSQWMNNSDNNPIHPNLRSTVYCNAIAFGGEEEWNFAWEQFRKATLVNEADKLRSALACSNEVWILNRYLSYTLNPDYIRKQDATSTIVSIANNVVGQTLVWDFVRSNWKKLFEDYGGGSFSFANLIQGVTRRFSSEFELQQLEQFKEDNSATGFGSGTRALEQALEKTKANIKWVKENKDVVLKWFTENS
Protocol: Rat intestine was obtained freshly from male Sprague–Dawley rats (200–300 g) supplied by Janvier Labs (Saint Berthevin, France). The middle section of the small intestine was longitudinally dissected and thoroughly washed with HBS pH 6.5 to remove intestinal contents. The intestine was stored at − 20 °C in HBS until further use.
After thawing the small intestine was cut into 1 × 1 cm pieces that were placed in tubes containing 500 µL of HBS. SEDDS with dissolved HIP were emulsified in a concentration of 10% (v/v) in HBS. 500 µL of nanoemulsions were added to each tube to obtain a final concentration of 5% (v/v) SEDDS. Thereafter, samples were incubated on a thermomixer at 37 °C with continuous agitation at 400 rpm. Over a 4 h time period, 100 µL aliquots were withdrawn from each sample at predefined time intervals. To terminate the enzymatic reaction, an equal volume of methanol containing 2% (v/v) TFA was added to each aliquot. Subsequently, the concentration of tuftsin in the supernatant was quantified using HPLC.

For `CC(C)=CCCC(C)CCO` (stereo not shown) [citronellol], the “Inhibitory activity of single SEDDS-3 excipients towards aminopeptidase N” value in data set [1] was 18%.
For the molecule `C[C@@H](O)[C@H](N)C(=O)N[C@@H](CCCCN)C(=O)N1CCC[C@H]1C(=O)N[C@@H](CCCNC(=N)N)C(=O)O` [tuftsin, Tuftsin] (H-TKPR-OH), in data set [2], the “Apparent permeability coefficient (Papp) of tuftsin” value is recorded as 0.8 × 10^–5 cm/s and the “Tuftsin permeated after 4 h of cumulative permeation (% of initial tuftsin)” value is 7%. Further, the “Time to entire degradation of the unformulated peptide (abstract)” value in data set [3] was at most 20 min.
